Test results published in patent US6559140B2 (Abbott Laboratories, priority 2000, dated 2003).

Each compound was assayed against H3 receptor (Rattus norvegicus, UniProt Q9QYN8) (assay: H3 receptor binding, (3H)-N-α-methylhistamine displacement in rat cortical membranes). Details: male Sprague-Dawley rat brain cortical membranes, 30 minutes at 25° C., Cheng-Prusoff, geometric mean values of 2-10 separate experiments.
Description: Briefly, male Sprague-Dawley rat brain cortices were homogenized (1 g tissue/10 mL buffer) in 50 mM Tris-HCl/5 mM EDTA containing protease inhibitor cocktail (Calbiochem) using a polytron set at 20,500 rpm. Homogenates were centrifuged for 20 minutes at 40,000×g. The supernatant was decanted, and pellets were weighed. The pellet was resuspended by polytron homogenization in 40 mL 50 mM Tris-HCl/5 mM EDTA with protease inhibitors and centrifuged for 20 minutes at 40,000×g. […] Test compounds were added to the incubation mixtures prior to initiating the incubation assay by addition of the membranes. Thioperamide (3 μM) was used to determine nonspecific binding. Binding incubations were conducted for 30 minutes at 25° C. and terminated by addition of 2 mL of ice cold 50 mM Tris-HCl (H 7.7) and filtration through 0.3% polyethylenimine-soaked Unifilter plates (Packard). These filters were washed 4 additional times with 2 mL of ice-cold 50 mM Tris-HCl and dried for 1 hour. Radioactivity was determined using liquid scintillation counting techniques. Results were analyzed by Hill transformation and Ki values were determined using the Cheng-Prusoff equation.

H3 receptor, sequence (Q9QYN8 1-397 isoform Q9QYN8-3): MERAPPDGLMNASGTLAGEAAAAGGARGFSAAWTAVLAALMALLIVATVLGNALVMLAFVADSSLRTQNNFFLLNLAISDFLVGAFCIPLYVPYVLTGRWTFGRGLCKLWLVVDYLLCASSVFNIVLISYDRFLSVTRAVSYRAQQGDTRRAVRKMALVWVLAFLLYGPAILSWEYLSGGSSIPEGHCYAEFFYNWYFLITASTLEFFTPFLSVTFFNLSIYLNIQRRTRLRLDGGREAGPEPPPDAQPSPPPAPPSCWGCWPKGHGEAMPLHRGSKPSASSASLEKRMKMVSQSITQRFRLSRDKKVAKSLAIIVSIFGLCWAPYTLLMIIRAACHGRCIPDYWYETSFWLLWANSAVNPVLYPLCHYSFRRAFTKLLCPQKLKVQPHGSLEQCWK

Compound	Ki [nM]
C[C@@H](NC(=O)[C@@H]1CCCO1)C(=O)N1CCN(CCCOc2ccc(-c3noc(-c4ccccc4)n3)c(F)c2)CC1 [Example 163, (2S)-N-[(1R)-2-(4-{3-[3-fluoro-4-(5-phenyl-1,2,4-oxadiazol-3-yl)phenoxy]propyl}-1-piperazinyl)-1-methyl-2-oxoethyl]tetrahydro-2-furancarboxamide]	8.35
C[C@@H](NC(=O)c1ccco1)C(=O)N1CCCN(CCCOc2ccc(-c3noc(-c4ccccc4)n3)c(F)c2)CC1 [Example 151, N-[(1R)-2-(4-{3-[3-fluoro-4-(5-phenyl-1,2,4-oxadiazol-3-yl)phenoxy]propyl}-1,4-diazepan-1-yl)-1-methyl-2-oxoethyl]-2-furamide]	4.29
C[C@H](N)C(=O)N1CCN(CCCOc2ccc(C(=O)C3CC3)cc2)CC1 [Example 1, (4-(3-(4-((2S)-2-aminopropanoyl)-1-piperazinyl)propoxy)phenyl)(cyclopropyl)methanone]	19.6
CC[C@@H](N)C(=O)N1CCN(CCCOc2ccc(C(=O)C3CC3)cc2)CC1 [Example 69, (4-(3-(4-((2R)-2-aminobutanoyl)-1-piperazinyl)propoxy)phenyl)(cyclopropyl)methanone]	1.24
Cc1cc(C)c(C(=O)NCCC(=O)N2CCN(CCCOc3ccc(-c4noc(-c5ccccc5)n4)c(F)c3)CC2)s1 [Example 156, N-[3-(4-{3-[3-fluoro-4-(5-phenyl-1,2,4-oxadiazol-3-yl)phenoxy]propyl}-1-piperazinyl)-3-oxopropyl]-3,5-dimethyl-2-thiophenecarboxamide]	13.7
C[C@H](N)C(=O)N1CCCN(CCCOc2ccc(C(=O)C3CC3)cc2)CC1 [Example 117, (4-(3-(4-((2S)-2-aminopropanoyl)-1,4-diazepan-1-yl)propoxy)phenyl)(cyclopropyl)methanone]	1.07
Tert-butyl (1R)-1-benzyl-2-(4-(3-(4-(cyclopropylcarbonyl)phenoxy)propyl)-1-piperazinyl)-2-oxoethylcarbamate [Example 79]	4.78
C[C@@H](N)C(=O)N1CCN(CCCOc2ccc(C(=O)C3CC3)cc2)CC1 [Example 138, (4-(3-(4-((2R)-2-aminopropanoyl)-1-piperazinyl)propoxy)phenyl)(cyclopropyl)methanone]	0.996
N#Cc1ccc(C(=O)NCCC(=O)N2CCN(CCCOc3ccc(-c4noc(-c5ccccc5)n4)c(F)c3)CC2)cc1 [Example 153, 4′-cyano-N-[3-(4-{3-[3-fluoro-4-(5-phenyl-1,2,4-oxadiazol-3-yl)phenoxy]propyl}-1-piperazinyl)-3-oxopropyl]benzamide]	26.1
CC(C)N[C@H](C)C(=O)N1CCN(CCCOc2ccc(C(=O)C3CC3)cc2)CC1 [Example 139, Cyclopropyl(4-(3-(4-((2R)-2-(isopropylamino)propanoyl)-1-piperazinyl)propoxy)phenyl)methanone]	7.29
Cn1cnc(C[C@@H](N)C(=O)N2CCN(CCCOc3ccc(C(=O)C4CC4)cc3)CC2)c1 [Example 88, (4-(3-(4-((2R)-2-amino-3-(1-methyl-1H-imidazol-4-yl)propanoyl)-1-piperazinyl)propoxy)phenyl)(cyclopropyl)methanone]	6.56
C[C@@H](NC(=O)c1ccco1)C(=O)N1CCCN(CCCOc2ccc(-c3noc(-c4ccoc4)n3)c(F)c2)CC1 [Example 147, N-{(1R)-2-[4-(3-{3-fluoro-4-[5-(3-furyl)-1,2,4-oxadiazol-3-yl]phenoxy}propyl)-1,4-diazepan-1-yl]-1-methyl-2-oxoethyl}-2-furamide]	1.68
Cc1cc(C(=O)NCCC(=O)N2CCN(CCCOc3ccc(-c4noc(-c5ccccc5)n4)c(F)c3)CC2)c(C)o1 [Example 157, N-[3-(4-{3-[3-fluoro-4-(5-phenyl-1,2,4-oxadiazol-3-yl)phenoxy]propyl}-1-piperazinyl)-3-oxopropyl]-2,5-dimethyl-3-furamide]	46.1

Continued, values first:

Ki [nM]	Compound
5.63	C[C@@H](N)C(=O)N1CCCN(CCCOc2ccc(-c3noc(CC4CCCC4)n3)c(F)c2)CC1 [Example 169, (2R)-1-[4-(3-{4-[5-(cyclopentylmethyl)-1,2,4-oxadiazol-3-yl]-3-fluorophenoxy}propyl)-1,4-diazepan-1-yl]-1-oxo-2-propanamine]
1.18	C[C@@H](NC(=O)c1ccc(Br)cc1)C(=O)N1CCN(CCCOc2ccc(C(=O)C3CC3)cc2)CC1 [Example 194, 4-bromo-N-[(1R)-2-(4-{3-[4-(cyclopropylcarbonyl)phenoxy]propyl}-1-piperazinyl)-1-methyl-2-oxoethyl]benzamide]
2.78	C[C@@H](NC(=O)c1ccccc1Cl)C(=O)N1CCN(CCCOc2ccc(-c3noc(CC4CCCC4)n3)c(F)c2)CC1 [Example 182, 2-chloro-N-{(1R)-2-[4-(3-{4-[5-(cyclopentylmethyl)-1,2,4-oxadiazol-3-yl]-3-fluorophenoxy}propyl)-1-piperazinyl]-1-methyl-2-oxoethyl}benzamide]
1	Cc1ccccc1C(=O)N[C@H](C)C(=O)N1CCN(CCCOc2ccc(C(=O)C3CC3)cc2)CC1 [Example 192, N-[(1R)-2-(4-{3-[4-(cyclopropylcarbonyl)phenoxy]propyl}-1-piperazinyl)-1-methyl-2-oxoethyl]-2-methylbenzamide]
15	CCOC(=O)c1nc(-c2ccc(OCCCN3CCN(C(=O)[C@@H](C)NC(=O)c4cccs4)CC3)cc2F)no1 [Example 191, Ethyl 3-{2-fluoro-4-[3-(4-{(2R)-2-[(2-thienylcarbonyl)amino]propanoyl}-1-piperazinyl)propoxy]phenyl}-1,2,4-oxadiazole-5-carboxylate]
0.81	C[C@@H](NC(=O)c1ccc(F)cc1)C(=O)N1CCN(CCCOc2ccc(-c3noc(CC4CCCC4)n3)c(F)c2)CC1 [Example 174, N-{(1R)-2-[4-(3-{4-[5-(cyclopentylmethyl)-1,2,4-oxadiazol-3-yl]-3-fluorophenoxy}propyl)-1-piperazinyl]-1-methyl-2-oxoethyl}-4-fluorobenzamide]
4.23	C[C@@H](NC(=O)c1cccs1)C(=O)N1CCN(CCCOc2ccc(-c3noc(-c4cccc(C#N)c4)n3)c(F)c2)CC1 [Example 188, N-{(1R)-2-[4-(3-{4-[5-(3-cyanophenyl)-1,2,4-oxadiazol-3-yl]-3-fluorophenoxy}propyl)-1-piperazinyl]-1-methyl-2-oxoethyl}-2-thiophenecarboxamide]
11	CC(C)CC(=O)N[C@H](C)C(=O)N1CCN(CCCOc2ccc(-c3noc(-c4ccccc4)n3)c(F)c2)CC1 [Example 165, N-[(1R)-2-(4-{3-[3-fluoro-4-(5-phenyl-1,2,4-oxadiazol-3-yl)phenoxy]propyl}-1-piperazinyl)-1-methyl-2-oxoethyl]-3-methylbutanamide]
1.22	C[C@@H](NC(=O)CCN1CCOCC1)C(=O)N1CCN(CCCOc2ccc(-c3noc(CC4CCCC4)n3)c(F)c2)CC1 [Example 172, N-{(1R)-2-[4-(3-{4-[5-(cyclopentylmethyl)-1,2,4-oxadiazol-3-yl]-3-fluorophenoxy}propyl)-1-piperazinyl]-1-methyl-2-oxoethyl}-3-(4-morpholinyl)propanamide]
51.3	C[C@@H](NC(=O)c1cccs1)C(=O)N1CCN(CCCOc2ccc(-c3noc(-c4cc(Cl)cc(Cl)c4)n3)c(F)c2)CC1 [Example 189, N-{(1R)-2-[4-(3-{4-[5-(3,5-dichlorophenyl)-1,2,4-oxadiazol-3-yl]-3-fluorophenoxy}propyl)-1-piperazinyl]-1-methyl-2-oxoethyl}-2-thiophenecarboxamide]
1.5	C[C@@H](NC(=O)c1ccc(C#N)cc1)C(=O)N1CCCN(CCCOc2ccc(-c3noc(CC4CCCC4)n3)c(F)c2)CC1 [Example 179, 4′-cyano-N-{(1R)-2-[4-(3-{4-[5-(cyclopentylmethyl)-1,2,4-oxadiazol-3-yl]-3-fluorophenoxy}propyl)-1,4-diazepan-1-yl]-1-methyl-2-oxoethyl}benzamide]
2.37	C[C@@H](NC(=O)c1ccc(N(C)C)cc1)C(=O)N1CCN(CCCOc2ccc(-c3noc(CC4CCCC4)n3)c(F)c2)CC1 [Example 180, N-{(1R)-2-[4-(3-{4-[5-(cyclopentylmethyl)-1,2,4-oxadiazol-3-yl]-3-fluorophenoxy}propyl)-1-piperazinyl]-1-methyl-2-oxoethyl}-4-(dimethylamino)benzamide]
26.2	Cc1cccc(-c2nc(-c3ccc(OCCCN4CCN(C(=O)[C@@H](C)NC(=O)c5cccs5)CC4)cc3F)no2)c1 [Example 187, N-{(1R)-2-[4-(3-{3-fluoro-4-[5-(3-methylphenyl)-1,2,4-oxadiazol-3-yl]phenoxy}propyl)-1-piperazinyl]-1-methyl-2-oxoethyl}-2-thiophenecarboxamide]
2.08	Cc1cc(C)cc(C(=O)N[C@H](C)C(=O)N2CCN(CCCOc3ccc(C(=O)C4CC4)cc3)CC2)c1 [Example 196, N-[(1R)-2-(4-{3-[4-(cyclopropylcarbonyl)phenoxy]propyl}-1-piperazinyl)-1-methyl-2-oxoethyl]-3,5-dimethylbenzamide]
25.9	COc1ccc(-c2nc(-c3ccc(OCCCN4CCN(C(=O)[C@@H](C)NC(=O)c5cccs5)CC4)cc3F)no2)cc1 [Example 198, N-{(1R)-2-[4-(3-{3-fluoro-4-[5-(4-methoxyphenyl)-1,2,4-oxadiazol-3-yl]phenoxy}propyl)-1-piperazinyl]-1-methyl-2-oxoethyl}-2-thiophenecarboxamide]
